# Test results taken from patent publication US5328909A, “Cyclopropenone derivatives” (Mitsubishi Kasei Corporation, priority 1991, dated 1994).
# Where two headings read alike, the source gives them in different places.
# Experiments:
# Assay type in all cases: biochemical
# papain = molecular target: T1, papain (Carica papaya, UniProt P00784); assay: Thiol protease inhibitory activity against papain (P-3125, Sigma)
# T1 sequence (P00784 134-345): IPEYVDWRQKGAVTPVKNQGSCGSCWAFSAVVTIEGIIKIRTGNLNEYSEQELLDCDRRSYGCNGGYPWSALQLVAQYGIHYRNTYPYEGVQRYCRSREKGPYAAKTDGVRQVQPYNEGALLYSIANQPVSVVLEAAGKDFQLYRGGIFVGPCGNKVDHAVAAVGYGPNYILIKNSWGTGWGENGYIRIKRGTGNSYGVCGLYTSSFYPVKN
# Description: (§1) Inhibitory activity against papain (P-3125, Sigma) and cathepsin B (C-6286, Sigma) was assayed according to the method described in a literature [Biochemical Journal, 201, 189 (1982)]. Capthesin L was purified from rat kidney according to the method in a literature [Journal of Biochemistry, 100, 35 (1986)], and the inhibitory activity against it was assayed in the same manner as described in the above literature for cathepsin B. Further, m-calpain was purified from rat brain according to a known method [Journal of Biological Chemistry, 254, p.3210 (1984)] and the inhibitory activity against it was assayed by a method described in a literature [Journal of Biological Chemistry, 259, 12489 (1984)]. The results are showing in Tables 3 and 4. It is evident from Tables 3 and 4 that the compounds in the present invention have a potent inhibitory activity against thiol proteases such as papain, cathepsin B, cathepsin L, m-calpain or the like.
# cathepsin B = molecular target: T2, cathepsin B (Bos taurus, UniProt P07688); assay: Thiol protease inhibitory activity against cathepsin B (C-6286, Sigma)
# T2 construct: purchased Sigma C-6286
# Description: as §1
# cathepsin L = molecular target: T3, cathepsin L (Rattus norvegicus, UniProt P07154); assay: Thiol protease inhibitory activity against cathepsin L purified from rat kidney
# T3 construct: Capthesin L was purified from rat kidney; from tissue; host or cells: rat kidney
# T3 sequence (P07154 114-288 limits assumed): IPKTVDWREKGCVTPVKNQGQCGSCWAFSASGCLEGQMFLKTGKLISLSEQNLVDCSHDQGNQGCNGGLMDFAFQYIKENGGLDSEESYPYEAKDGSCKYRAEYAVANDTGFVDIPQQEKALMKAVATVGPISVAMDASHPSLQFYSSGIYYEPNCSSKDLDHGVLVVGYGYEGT
# T3 sequence (P07154 291-334 limits assumed): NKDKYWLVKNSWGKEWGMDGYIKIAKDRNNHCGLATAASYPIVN
# Description: as §1
# m-calpain = molecular target: T4, m-calpain (Rattus norvegicus, UniProt Q07009); assay: Thiol protease inhibitory activity against m-calpain purified from rat brain
# T4 construct: m-calpain was purified from rat brain; from tissue; host or cells: rat brain
# T4 sequence (Q07009 20-700 limits assumed): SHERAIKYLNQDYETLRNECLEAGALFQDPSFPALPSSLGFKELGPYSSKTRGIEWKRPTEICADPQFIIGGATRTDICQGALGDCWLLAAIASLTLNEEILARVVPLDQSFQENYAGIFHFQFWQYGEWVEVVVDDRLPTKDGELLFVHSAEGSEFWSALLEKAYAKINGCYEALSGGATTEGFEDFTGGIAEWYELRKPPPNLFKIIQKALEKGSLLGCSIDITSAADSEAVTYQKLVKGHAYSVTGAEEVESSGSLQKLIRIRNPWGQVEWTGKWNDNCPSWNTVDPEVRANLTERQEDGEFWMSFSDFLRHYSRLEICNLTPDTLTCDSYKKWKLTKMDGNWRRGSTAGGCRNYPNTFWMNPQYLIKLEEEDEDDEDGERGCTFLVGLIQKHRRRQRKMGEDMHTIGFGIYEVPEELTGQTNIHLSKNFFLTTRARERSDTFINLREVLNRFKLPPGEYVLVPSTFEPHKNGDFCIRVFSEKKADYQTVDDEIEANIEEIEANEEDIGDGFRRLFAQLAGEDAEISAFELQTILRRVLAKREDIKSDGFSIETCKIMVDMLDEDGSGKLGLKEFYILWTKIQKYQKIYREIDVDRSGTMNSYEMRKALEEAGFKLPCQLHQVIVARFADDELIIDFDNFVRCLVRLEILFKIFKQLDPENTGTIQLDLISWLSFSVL
# T4 sequence (Q64537 1-270 partner): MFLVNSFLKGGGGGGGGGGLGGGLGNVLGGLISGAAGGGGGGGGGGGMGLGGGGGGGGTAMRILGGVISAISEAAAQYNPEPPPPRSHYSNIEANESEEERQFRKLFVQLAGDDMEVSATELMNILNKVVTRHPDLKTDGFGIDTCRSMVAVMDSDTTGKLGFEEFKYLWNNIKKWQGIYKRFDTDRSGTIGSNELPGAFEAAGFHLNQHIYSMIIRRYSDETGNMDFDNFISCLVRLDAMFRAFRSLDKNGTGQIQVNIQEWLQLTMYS
# Description: as §1
# [1] = Table 3, read-out: IC50 (μM) papain
# [2] = Table 3, read-out: IC50 (μM) cathepsin B
# [3] = Table 3, rat kidney enzyme, read-out: IC50 (μM) cathepsin L
# [4] = Table 3, rat brain enzyme, read-out: IC50 (μM) m-calpain
# [5] = Table 4, rat brain enzyme, read-out: Inhibitory activity against m-calpain IC50
SMILES,IC50 (papain; [1]) [µM],IC50 (cathepsin B; [2]) [µM],IC50 (cathepsin L; [3]) [µM],IC50 (m-calpain; [4]) [µM],IC50 (m-calpain; [5]) [µM],also measured
"CC(C)C[C@H](NC(=O)OCC1CCCCC1)C(=O)N[C@@H](C(C)C)[C@H](O)c1c(-c2ccccc2)c1=O [2 (No. 77), 2-[(1R, 2S)-2-{(S)-2-cyclohexylmethoxycarbonylamino-4-methylvalerylamino}-1-hydroxy-3-methylbutyl]-3-phenylcyclopropenone]",22,0.044,0.0012,3.3,,
"CC(C)C[C@H](NC(=O)OCC1CCCCC1)C(=O)N[C@@H](C(C)C)C(O)c1cc1=O (stereo partly drawn) [4 (No. 4), 2-[(2S)-2-((S)-2-cyclohexylmethoxycarbonylamino-4-methylvalerylamino)-1-hydroxy-3-methylbutyl]cyclopropenone]",5.8,0.41,,0.5,,
"CC(C)C[C@H](NC(=O)OCc1ccccc1)C(=O)N[C@@H](CC(C)C)C(O)c1cc1=O (stereo partly drawn) [5 (No. 10), 2-[(2S)-2-((S)-2-benzyloxycarbonylamino-4-methylvalerylamino)-1-hydroxy-4-methylpentyl]cyclopropenone]",> 100,3,0.75,2.3,,
"CCCC[C@H](NC(=O)[C@H](CC(C)C)NC(=O)OCC1CCCCC1)C(O)c1cc1=O (stereo partly drawn) [6 (No. 15), 2-[(2S)-2-((S)-2-cyclohexylmethoxycarbonylamino-4-methylvalerylamino)-1-hydroxyhexyl]cyclopropenone]",0.076,0.16,0.54,0.81,,
"CCCC[C@H](NC(=O)[C@H](CC(C)C)NC(=O)OCc1ccccc1)C(O)c1cc1=O (stereo partly drawn) [7 (No. 16), 2-[(2S)-2-((S)-2-benzyloxycarbonylamino-4-methylvalerylamino)-1-hydroxyhexyl]cyclopropenone]",0.14,0.32,0.24,2.4,,
"CC(C)C[C@H](NC(=O)OCc1ccccc1)C(=O)N[C@@H](C(C)C)[C@@H](O)c1c(-c2ccccc2)c1=O [25 (No. 83), 2-[(1S, 2S)-2-((S)-2-benzyloxycarbonylamino-4-methylvalerylamino)-1-hydroxy-3-methylbutyl]-3-phenylcyclopropenone]",13,32,5.7,2.1,,
"CC(C)C[C@H](NC(=O)OCc1ccccc1)C(=O)N[C@@H](C(C)C)C(O)c1c(-c2ccccc2)c1=O (stereo partly drawn) [26 (No. 83), 2-[(2S)-2-((S)-2-benzyloxycarbonylamino-4-methylvalerylamino)-1-hydroxy-3-methylbutyl]-3-phenylcyclopropenone]",4.2,43,5.8,1.6,,
"CC(C)C[C@H](NS(=O)(=O)c1cccc2ccccc12)C(=O)N[C@@H](C(C)C)[C@@H](O)c1c(-c2ccccc2)c1=O [88 (No. 259), 2-[(1S, 2S)-1-hydroxy-3-methyl-2-{(S)-4-methyl-2-(1-naphtylsulfonylamino)valerylamino}butyl]-3-phenylcyclopropenone]",,,,,0.65,
"CC(C)C[C@H](NS(=O)(=O)c1ccc2ccccc2c1)C(=O)N[C@@H](C(C)C)[C@@H](O)c1c(-c2ccccc2)c1=O [89 (No. 260), 2-[(1S, 2S)-1-hydroxy-3-methyl-2-{(S)-4-methyl-2-(2-naphtylsulfonylamino)valerylamino}butyl]-3-phenylcyclopropenone]",,,,,0.46,
"CC(C)C[C@H](NS(=O)(=O)c1cccc2cccnc12)C(=O)N[C@@H](C(C)C)[C@@H](O)c1c(-c2ccccc2)c1=O [91 (No. 265), 2-[(1S, 2S)-1-hydroxy-3-methyl-2-{(S)-4-methyl-2-(8-quinolylsulfonylamino)valerylamino}butyl]-3-phenylcyclopropenone]",,,,,1.9,
"CCCC[C@H](NC(=O)[C@H](CC(C)C)NC(=O)OCC1CCCCC1)C(O)c1c(-c2ccccc2)c1=O (stereo partly drawn) [94 (No. 280), 2-[(2S)-2-((S)-2-cyclohexylmethoxycarbonylamino-4-methylvalerylamino)-1-hydroxyhexyl]-3-phenylcyclopropenone]",0.074,1,0.062,2.7,,
"CCCC[C@H](NC(=O)[C@H](CC(C)C)NC(=O)OCc1ccccc1)C(O)c1c(-c2ccccc2)c1=O (stereo partly drawn) [95 (No. 281), 2-[(2S)-2-((S)-2-benzyloxycarbonylamino-4-methylvalerylamino]-1-hydroxyhexyl]-3-phenylcyclopropenone]",13,11,1.27,3,,
CCCC[C@H](NC(=O)[C@H](CC(C)C)NC(=O)OCc1ccccn1)C(O)c1c(-c2ccccc2)c1=O (stereo partly drawn) [96 (No. 282)],,28,4.6,5.7,,IC50 (papain): 7 µM
"CC(C)C[C@H](NC(=O)OCC1CCCCC1)C(=O)N[C@@H](C(C)C)[C@@H](O)c1c(-c2ccc(F)cc2)c1=O [105 (No. 311), 2-[(1S, 2S)-2-((S)-2-cyclohexylmethoxycarbonylamino-4-methylvalerylamino)-1-hydroxy-3-methylbutyl]-3-(4-fluorophenyl)cyclopropenone]",,,,,1.5,
"CC(C)C[C@H](NS(=O)(=O)c1ccccc1)C(=O)N[C@@H](C(C)C)[C@@H](O)c1c(-c2ccc(F)cc2)c1=O [111 (No. 317), 2-(4-fluorophenyl)-3-[(1S, 2S)-1-hydroxy-3-methyl-2-((S)-4-methyl-2-phenylsulfonylaminovalerylamino)butyl]cyclopropenone]",,,,,2.9,
"CCCC[C@H](NC(=O)[C@H](CC(C)C)NC(=O)OCc1ccccc1)C(O)c1c(-c2ccc(F)cc2)c1=O (stereo partly drawn) [112 (No. 319), 2[(2S)-2-((S)-2-benzyloxycarbonylamino-4-methylvalerylamino)-1-hydroxyhexyl]-3-(4-fluorophenyl)cyclopropenone]",,,,,4.3,
"CCCC[C@H](NC(=O)[C@H](CC(C)C)NC(=O)OCC1CCCCC1)C(O)c1c(-c2ccc([Si](C)(C)C)o2)c1=O (stereo partly drawn) [114 (No. 376), 2-[(2S)-2-((S)-2-cyclohexylmethoxycarbonylamino-4-methylvalerylamino)-1-hydroxy-1-hexyl]-3-(5-trimethylsilyl-2-furil)cyclopropenone]",0.68,,,,,IC50 (cathepsin B): 2.5 µM; IC50 (cathepsin L): 0.58 µM; IC50 (m-calpain): 5.6 µM
"CC(C)C[C@H](NC(=O)OCC1CCCCC1)C(=O)N[C@@H](CC(C)C)C(=O)N[C@@H](C(C)C)[C@@H](O)c1c(-c2ccccc2)c1=O [118 (No. 467), 2-[(1S, 2S)-2-{(S)-2-((S)-2-cyclohexylmethoxycarbonylamino-4-methylvalerylamino)-4-methylvalerylamino}-1-hydroxy-3-methylbutyl]-3-phenylcyclopropenone]",,,,,0.84,
"CC(C)C[C@H](NC(=O)[C@H](Cc1ccccc1)NC(=O)OCc1ccccc1)C(=O)N[C@@H](C(C)C)[C@@H](O)c1c(-c2ccccc2)c1=O [120 (No. 478), 2-[(1S, 2S)-2-{(S)-2-((S)-2-benzyloxycarbonylamino-3-phenylpropionylamino)-4-methylvalerylamino}-1-hydroxy-3-methylbutyl]-3-phenylcyclopropenone]",,,,,1.2,
